Measurements taken from patent US7220720B2, “Melanin-concentrating hormone analogs” (Merk & Co., Inc., priority 2000, dated 2007).
Where two headings read alike, the source gives them in different places. Where a SMILES comes first, the peptide text is derived from it. Bridges are numbered along the chain shown (N, C = ends).

Experiments:
[1] = target: T1, human MCH receptor (Homo sapiens, UniProt Q99705); assay: Aequorin bioluminescence functional assay in 293-AEQ17 cells transfected with human MCH receptor; format: cell-based; design: expressed in transfected cells; host or cells: 293-AEQ17 (aequorin-expressing HEK-293 reporter line), transient lipofectamine transfection, pcDNA-3 vector; Activity Activation %: concentration or dose not given beside the values; settings: for % Activation at 10 μM: Table 1, aequorin functional assay; for Activity Activation %: Table 5, position 10 modification
Experimental: The aequorin bioluminescence assay is a reliable test for measuring the activity of G protein-coupled receptors that couple through the Gα protein subunit family consisting of Gq and Gll and leads to the activation of phospholipase C, mobilization of intracellular calcium and activation of protein kinase C.
Following approximately 40 hours of expression the apo-aequorin in the cells was charged for 4 hours with coelenterazine (10 μM) under reducing conditions (300 μM reduced glutathione) in ECB buffer (140 mM NaCl, 20 mM KCl, 20 mM HEPES-NaOH [pH=7.4], 5 mM glucose, 1 mM MgCl2, 1 mM CaCl2, 0.1 mg/ml bovine serum albumin).
The cells were harvested, washed once in ECB medium and resuspended to 500,000 cells/ml. 100 μl of cell suspension (corresponding to 5×10^4 cells) was then injected into the test plate containing MCH or MCH analogs, and the integrated light emission was recorded over 30 seconds, in 0.5 second units. 20 μL of lysis buffer (0.1% final Triton X-100 concentration) was then injected and the integrated light emission recorded over 10 seconds, in 0.5 second units. The “fractional response” values for each well were calculated by taking the ratio of the integrated response to the initial challenge to the total integrated luminescence including the Triton X-100 lysis response.

[2] = target: T1, human MCH receptor; assay: Radiolabeled MCH-R binding assay: inhibition of [125I]-human MCH (Phe13, Tyr19 substituted) binding to cell membranes (filter or SPA format); design: expressed in transfected cells
Experimental: Cell membranes were prepared on ice. Each T-75 flask was rinsed twice with 10 ml of Enzyme-free Cell Dissociation Buffer (Specialty Media, Lavallette, N.J.), and the cell monolayer was detached in an additional 10 ml of Enzyme-free Cell Dissociation Buffer by incubation at room temperature for 10 minutes. Dissociated cells were centrifuged (500×g for 10 minutes at 4° C.), resuspended in 5 ml homogenization buffer (10 mM Tris-HCl, pH 7.4, 0.01 mM Pefabloc, 10 μM phosphoramidon, 40 μg/ml bacitracin) and then homogenized using a glass homogenizer (10–15 strokes). The homogenate was centrifuged for 10 minutes (1,000×g at 4° C.). The resulting supernatant was then centrifuged at 38,700×g for 15 minutes at 4° C. Pelleted membranes were resuspended (passed through 25 gauge needle 5 times), snap-frozen on liquid nitrogen, and stored at −80° C. until use.
Binding was performed in a 96-well filter assay or Scintillation Proximity Assay (SPA)-based format using cell membranes from a stable CHO or HEK-293 cell line expressing the MCH receptor. For the filter assay, reactions were performed at 20° C. for 1 hour in a total volume of 0.2 ml containing: 0.05 ml of membrane suspension (˜3 μg protein), 0.02 ml of [^125I]-human MCH (Phe^13, Tyr^19 substituted; 30 pM), 0.01 ml of competitor and 0.12 ml of binding buffer (50 mM Tris-HCl, pH 7.4, 10 mM MgCl2, 2 mM EDTA, 200 μg/ml bacitracin, 1 μM phosphoramidon).
Bound radioligand was separated by rapid vacuum filtration (Packard Filtermate 96-well cell harvester) through GF/C filters pretreated for 1 hour with 1% polyethylenimine. After application of the membrane suspension to the filter, the filters were washed 3 times with 3 ml each of ice-cold 50 mM Tris-HCl, pH 7.4, 10 mM MgCl2, 2 mM EDTA, 0.04% Tween 20 and the bound radioactivity on the filters was quantitated by scintillation counting (TopCount device).
For the SPA-based assay, WGA-PVT beads (NEN Life Sciences Products) were resuspended in Dulbecco's PBS with calcium and magnesium (500 mg beads in 4 ml PBS). For each 96-well assay plate, 0.18 ml of beads was pre-coated with MCH receptor by mixing with 0.2 ml MCH receptor CHO cell membranes (˜0.2–4 mg protein) and 1.5 ml SPA assay buffer (50 mM Tris-HCl, pH 7.4, 10 mM MgCl2, 2 mM EDTA, 0.1% BSA, 12% glycerol). The suspension was mixed gently for 20 minutes, 12.3 ml of assay buffer and protease inhibitors were added (final concentration given): 2 μg/ml leupeptin, 10 μM phosphoramidon, 40 μg/ml bacitracin, 5 μg/ml aprotinin, 0.1 mM Pefabloc.
Coated beads were kept on ice until use. For each well, 0.145 ml of beads were added to Optiplate assay plates (Packard 6005190), followed by 0.002–0.004 ml of competitor and 0.05 ml of [^125I]-human MCH (Phe^13, Tyr^19 substituted; 30 pM). Binding reactions were allowed to proceed at room temperature for 3 hours. Quantitation was performed by scintillation counting (TopCount device).

[3] = Table 1, SPA based assay, read-out: Binding Assay IC50
[4] = Table 5, position 10 modification, read-out: Activity IC50

T1 sequence (Q99705 whole entry): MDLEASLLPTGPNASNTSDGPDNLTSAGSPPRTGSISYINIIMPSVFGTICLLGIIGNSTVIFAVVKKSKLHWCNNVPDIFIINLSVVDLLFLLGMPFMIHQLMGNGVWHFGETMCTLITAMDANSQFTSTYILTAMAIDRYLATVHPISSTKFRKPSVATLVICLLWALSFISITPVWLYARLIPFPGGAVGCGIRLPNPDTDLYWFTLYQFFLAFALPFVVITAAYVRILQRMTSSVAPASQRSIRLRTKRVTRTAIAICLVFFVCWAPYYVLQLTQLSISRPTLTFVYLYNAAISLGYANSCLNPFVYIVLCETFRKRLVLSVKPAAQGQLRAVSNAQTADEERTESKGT

Row | Activity Activation % [1] | IC50 [2, 4] | SMILES | % Activation at 10 μM [1] | IC50 [2, 3]
1 | 4% | 0.7 µM | CSCC[C@@H]1NC(=O)[C@@H](NC(=O)[C@H](CCCNC(=N)N)NC(C)=O)CSSC[C@@H](C(N)=O)NC(=O)[C@@H]2CCCN2C(=O)[C@H](CCCNC(=N)N)NC(=O)[C@H](Cc2ccc(O)cc2)NC(=O)[C@H](C(C)C)NC(=O)[C@H](CCCNC(=N)N)NC(=O)[C@@H]2CCCN2C(=O)[C@H](CC(C)C)NC1=O [compound 50] |  | 
2 | 25% | 0.11 µM | CSCC[C@@H]1NC(=O)[C@@H](NC(=O)[C@H](CCCNC(=N)N)NC(C)=O)CSSC[C@@H](C(N)=O)NC(=O)[C@@H]2CCCN2C(=O)[C@H](CCCNC(=N)N)NC(=O)[C@H](Cc2ccc(O)cc2)NC(=O)[C@H](C(C)C)NC(=O)[C@H](CCCNC(=N)N)NC(=O)[C@H](CCCCN)NC(=O)[C@H](CC(C)C)NC1=O [compound 53] |  | 
3 | 12% | 0.19 µM | CSCC[C@@H]1NC(=O)[C@@H](NC(=O)[C@H](CCCNC(=N)N)NC(C)=O)CSSC[C@@H](C(N)=O)NC(=O)[C@@H]2CCCN2C(=O)[C@H](CCCNC(=N)N)NC(=O)[C@H](Cc2ccc(O)cc2)NC(=O)[C@H](C(C)C)NC(=O)[C@H](CCCNC(=N)N)NC(=O)[C@H](CCC(=O)O)NC(=O)[C@H](CC(C)C)NC1=O [compound 54] |  | 

The remaining lines, values behind:

Row | SMILES | Activity Activation % [1] | IC50 [2, 4] | % Activation at 10 μM [1] | IC50 [2, 3]
4 | CSCC[C@@H]1NC(=O)[C@@H](NC(=O)[C@H](CCCNC(=N)N)NC(C)=O)CSSC[C@@H](C(=O)N[C@@H](Cc2ccc(O)cc2)C(N)=O)NC(=O)[C@@H]2CCCN2C(=O)[C@H](CCCNC(=N)N)NC(=O)[C@H](Cc2ccccc2)NC(=O)[C@H](C(C)C)NC(=O)[C@H](CCCNC(=N)N)NC(=O)CNC(=O)[C@H](CC(C)C)NC1=O [compound 8] (Ac-RCMLGRVFRPCY-NH2; disulfide 2-11) |  |  | 123% | 0.00016 µM
5 | CSCC[C@@H]1NC(=O)[C@@H](NC(C)=O)CSSC[C@@H](C(N)=O)NC(=O)[C@@H]2CCCN2C(=O)[C@H](CCCNC(=N)N)NC(=O)[C@H](Cc2ccc(O)cc2)NC(=O)[C@H](C(C)C)NC(=O)[C@H](CCCNC(=N)N)NC(=O)CNC(=O)[C@H](CC(C)C)NC1=O [compound 9] |  |  | 74% | 0.0016 µM
6 | CSCC[C@@H]1NC(=O)[C@@H](NC(=O)[C@H](CCCNC(=N)N)NC(=O)[C@H](CC(C)C)NC(=O)[C@H](CCSC)NC(=O)[C@H](CC(=O)O)NC(=O)[C@H](Cc2ccccc2)NC(=O)[C@@H](N)CC(=O)O)CSSC[C@@H](C(N)=O)NC(=O)[C@@H]2CCCN2C(=O)[C@H](CCCNC(=N)N)NC(=O)[C@H](Cc2ccc(O)cc2)NC(=O)[C@H](C(C)C)NC(=O)[C@H](CCCNC(=N)N)NC(=O)CNC(=O)[C@H](CC(C)C)NC1=O [compound 10] (H-DFDMLRCMLGRVYRPC-NH2; disulfide 7-16) |  |  | 99% | 0.0003 µM
